Where two headings read alike, the source gives them in different places.
Legend:
[1] = system: NIH3T3 cells; test: MTT assay, cytotoxicity in normal cells; type: cell-based; conditions: for cytotoxicity: normal cells (NIH3T3), result in words
Method: (§1) NIH3T3 cells, as a mouse fibroblast cell line, and B16F10 cells, as a mouse melanoma cell line, were dispensed into a 96 well plate at 2×10^3 cells/well, and cultured in DMEM supplemented with 10% fetal bovine serum (FBS) at 5% CO2 and 37°C. Compounds (pterosin A, pterosin B, pterosin C, pterosin D, pterosin P, pterosin Z, pteroside A, pteroside B and pteroside Z) were treated at different concentrations and then cultured for 48 hours. Thereafter, MTT solution (5 mg/ml) was added to each well at a concentration of […] and incubated at 37°C for 4 hours. […] After incubation for 10 minutes, optical density was measured at 550 nm by using a Microplate Reader (Molecular Devices, Spectra Max, USA). An optical density is an index representing the number of surviving cells and is calculated by the formula below, and reproducibility was confirmed through three experiments. Cell proliferation rate (%) = OD550 (sample)/OD550; (control) × 100 [formula]
(§2) As described in the experimental method, mouse embryo fibroblast cell-line (NIH3T3) as a normal cell and Mouse melanoma cell-line (B16F10) as a cancer cell were cultured in a 96-well plate, and each compound was added to the cell medium at each concentration and cultured for 48 hours, MTT was then administered, and the optical density was measured at 550 nm by using a microplate reader. The optical density is an index representing the number of surviving cells and calculated by the following formula, and reproducibility was confirmed through three experiments. Cell proliferation rate (%) = OD550 (sample)/OD550; (control) × 100 [formula]
(§3) Then, the LD50 (Lethal Dose 50) value was calculated based on the change in cell proliferation rate.

[2] = system: B16F10 cells; test: MTT assay, cytotoxicity in cancer cells; type: cell-based; conditions: for cytotoxicity: cancer cells (B16F10), result in words
Method: as §1, §2, §3

[3] = system: CREB; test: Western blot for CREB phosphorylation level in neurons; type: cell-based; conditions: for CREB phosphorylation: 10 µM, FIG. 2, against positive control amx; for phosphorylation of CREB: FIG. 8, compared with pterosin B
Method: (§4) Western blot analysis was performed by using the following method. Cells were lysed in RIPA buffer (20 mM Tris-Cl pH 7.4, 1 mM EDTA, 150 mM NaCl, 1% Triton X-100, 1 mM EGTA, 1 µM Na3VO4, 2.5 mM sodium pyrophosphate, 1 µM phenylmethylsulfonyl fluoride, 1 ug/ml leupeptin). The protein concentration was calculated by using BCA Protein Assay Reagent (BioRad, Hercules, CA, USA). Protein samples were separated by SDS-PAGE and transferred to polyvinylidene difluoride (PVDF) membranes (Millipore, Bedford, MA, USA). Membranes were incubated overnight at 4 °C with primary antibodies followed by HRP-conjugated goat anti-rabbit IgG (1:5,000; Pierce; Carlsbad, CA, USA). The used primary antibodies were actin (sigma; 1:1000), p-CREB (Cell signaling; 1:1000), tubulin (Cell signaling; 1:1000), p-PKA (Cell signaling; 1:1000), p -trk (Cell signaling; 1:1000) and BDNF (Abcam; 1:1000). All membranes were visualized by using a UVP Autochemi Darkroom Imaging System (Utra-Violet Products Ltd. UK) and Immobilon Crescendo Western HRP Substrate or Luminata Forte Western HRP Substrate (Millipore, USA).

[4] = system: CREB; test: Western blot for CREB phosphorylation level in astrocytes; type: cell-based; conditions: FIG. 2
Method: as §4

[5] = system: hippocampal slice; test: Electrophysiology in hippocampal slices (fEPSP, LTP); set-up: species or system mouse; conditions: theta-burst stimulation, FIG. 10
Method: • 1. The brain of a 4-month-old mouse was placed on an ice-cold dissection buffer, and a 300 µm-thick sagittal hippocampal slice was prepared by using a vibratome (dissection buffer: contents in mM: […], 25 NaHCO3, 5 KCl, 1.25 NaH2PO4, 0.5 CaCl2, 3.5 MgSO4, 10 D-glucose, 1.25 L-ascorbic acid and 2 Na-pyruvate bubbled with 95% O2/5% CO2). • 2. Slices were recovered at 32°C for 1 hour in normal ACSF (ACSF: mM: 125 NaCl, 2.5 KCl, 1.25 NaH2PO4, 25 NaHCO3, 10 glucose, 2.5 CaCl2 and 1.3 MgCl2 oxygen in 95% O2/5% CO2). • 3. During recording, the slices were moved to a chamber submerged in ACSF at 28°C, and ACSF saturated with 95% O2/5% CO2 was continuously perfused (2ml/min). A Micropipette for stimulation and recording was fabricated by using boron acid glass capillaries (Harvard Instruments) and a micropipette electrode puller. • 4. For input/output, paired-pulse ratio, and long-term potentiation (LTP) experiments, an ACSF-filled pipette (resistance: […]) was used to test the hippocampus. A field excitatory post-synaptic potential (fEPSP) was measured in the CA1 region. The fEPSP signal was amplified by using Multiclamp 700B (Molecular Devices) and digitized by using Digidata 1440A (Molecular Devices). […] The pair-pulse ratio was measured after giving the pair stimulation at intervals of 25, 50, 75, 100, 200, and 300 ms . • 6. […]

[6] = in vitro; conditions: for Papp at 4 h: PAMPA, pH 7.4, Pe Average
Method: Progesterone was used as a positive control and ranitidine was used as a negative control: • (1) A donor buffer at pH 7.4 was dispensed to a deep well plate and mixed with a test substance. • (2) The donor buffer was dispensed into a U.V plate by 150ul per well, and the optical density was measured: blank value. • (3) The mixture was dispensed in the deep well plate into the U.V plate by 150ul per well, and then the optical density was measured: blank value. • (4) 200ul of the mixture in step 1) was dispensed into the donor plate of the Stirwell PAMPA sandwich. • (5) The membrane of the acceptor plate of the Stirwell PAMPA sandwich was coated with 5 ul of BBB-1-lipid. • (6) A brain sink buffer was dispensed into each well on the acceptor plate by 200 ul. • (7) The acceptor plate and donor plate were combined and incubated at 25°C for 4 hours. • (8) After 4 hours of incubation, the acceptor plate and donor plate were separated, and 150 µl each was transferred to a UV plate, and the optical density was measured.

[7] = system: nerve cells (Neuron); test: Neuron proliferation, differentiation and regeneration promoting ability (microscopy); type: cell-based; conditions: against control group, FIG. 11
Method: The abilities of pterosin compounds to promote nerve cell proliferation, differentiation and regeneration were evaluated.

[8] = Normal cell NIH3T3, cultured 48 hours, MTT, OD 550 nm
[9] = Cancer cell B16F10, cultured 48 hours, MTT, OD 550 nm
[10] = pH 7.4, 25°C, 4 hours, controls 50 µM, Pterosin D 12.5 µM

| Structure (SMILES) | CREB phosphorylation [3] | CREB phosphorylation [4] | LD50 [1, 8] | LD50 [2, 9] | cytotoxicity [1] | cytotoxicity [2] | further results |
| --- | --- | --- | --- | --- | --- | --- | --- |
| Cc1cc2c(c(C)c1CCO[C@@H]1O[C@H](CO)[C@@H](O)[C@H](O)[C@H]1O)C(=O)[C@](C)(CO)C2 [Compound 11, (2S)-pteroside A] | – | – | – | – | – | – | LD50 [1]: >5,000 µM; LD50 [2]: >5,000 µM |
| Cc1cc2c(c(C)c1CCO)C(=O)[C@@H](C)[C@@H]2O [pterosin C] | significantly increased | no effect | – | – | – | – | phosphorylation of CREB [3]: statistically significantly increased; hippocampus mossy fiber-CA1 LTP [5]: particularly strong |
| CC(=O)[C@H]1CC[C@H]2[C@@H]3CCC4=CC(=O)CC[C@]4(C)[C@H]3CC[C@]12C [Progesterone, reference compound] | – | – | – | – | – | – | Papp at 4 h [6]: 28.8 ×10⁻⁶ cm/s |
| Cc1cc2c(c(C)c1CCO)C(=O)[C@@H](C)[C@H]2O [Compound 8, (2S,3R)-pterosin C] | – | – | >5,000 µM | >5,000 µM | – | – | – |
| Cc1cc2c(c(C)c1CCO[C@@H]1O[C@H](CO)[C@@H](O)[C@H](O)[C@H]1O)C(=O)[C@H](C)C2 [Compound 9, (2R)-pteroside B] | – | – | – | – | – | – | LD50 [1]: >5,000 µM; LD50 [2]: >5,000 µM |
| Cc1cc2c(c(C)c1CCO)C(=O)C(C)(C)C2 [Compound 3, pterosin Z] | did not increase CREB phosphorylation at all | no effect | – | – | weak cytotoxicity | weak cytotoxicity | – |
| Cc1cc2c(c(C)c1CCO)C(=O)[C@H](C)C2 [Compound 2, (2R)-pterosin B] | did not increase CREB phosphorylation at all | no effect | – | >5,000 µM | little cytotoxicity | little cytotoxicity | – |
| Cc1c(CCO)c(CO)cc2c1C(=O)[C@@H](C)C2 [Compound 4, (2S)-pterosin P] | did not increase CREB phosphorylation at all | no effect | >5,000 µM | >5,000 µM | little cytotoxicity | little cytotoxicity | – |
| Cc1cc2c(c(C)c1CCO[C@@H]1O[C@H](CO)[C@@H](O)[C@H](O)[C@H]1O)C(=O)C(C)(C)C2 [Compound 10, pteroside Z] | – | – | – | – | – | – | LD50 [1]: >5,000 µM; LD50 [2]: >5,000 µM |
| Cc1cc2c(c(C)c1CCO)C(=O)C(C)(C)[C@@H]2O [Compound 5, (3R)-pterosin D] | significantly increased | no effect | >5,000 µM | >5,000 µM | little cytotoxicity | little cytotoxicity | phosphorylation of CREB [3]: statistically significantly increased; hippocampus mossy fiber-CA1 LTP [5]: particularly strong; length of nerve cells [7]: significantly longer; Papp at 4 h [6, 10]: 20.9 ×10⁻⁶ cm/s; Pe 1st [6, 10]: 19.74 10^-6cm/sec; Pe 2nd [6, 10]: 20.20 10^-6cm/sec; Pe 3rd [6, 10]: 22.73 10^-6cm/sec; BCS code, CNS +/- (spreadability to CNS) ([6]; pH 7.4, controls 50 µM, Pterosin D 12.5 µM): CNS+ (>10) |
| Cc1cc2c(c(C)c1CCO)C(=O)[C@](C)(CO)C2 [Compound 6, (2S)-pterosin A] | significantly increased | no effect | >5,000 µM | – | – | weak cytotoxicity only in cancer cells | phosphorylation of CREB [3]: statistically significantly increased |
| Cc1cc2c(c(C)c1CCO)C(=O)[C@H](C)[C@H]2O [Compound 7, (2R,3R)-pterosin C] | – | – | >5,000 µM | >5,000 µM | – | – | – |

From EP4260850A1, “PHARMACEUTICAL COMPOSITION COMPRISING PTEROSIN COMPOUND AND DERIVATIVE THEREOF AS ACTIVE INGREDIENT FOR PREVENTION OR TREATMENT OF PKA-RELATED DISEASE” (GHPharm Co., Ltd., priority 2020, dated 2022)
